Test results: patent US7851473B2, “Amide compound” (Takeda Pharmaceutical Company Limited, priority 2004, dated 2010)
Structures can show the parent of a compound that is named as a salt.

target: T1, human FAAH (Homo sapiens, UniProt O00519); assay: Measurement of FAAH inhibitory activity (anandamide [ethanolamine 1-3H] hydrolysis, filter plate); assay type: biochemical; settings: test compound 1 μM; CHO-K1/human FAAH enzyme fraction; anandamide 25 nM; 37° C., 30 minutes; read-out: Human FAAH Inhibition Rate at 1 μM (%)
T1 construct: made in house; 10000 g pellet suspended in M-PER
T1 sequence (O00519 1-579): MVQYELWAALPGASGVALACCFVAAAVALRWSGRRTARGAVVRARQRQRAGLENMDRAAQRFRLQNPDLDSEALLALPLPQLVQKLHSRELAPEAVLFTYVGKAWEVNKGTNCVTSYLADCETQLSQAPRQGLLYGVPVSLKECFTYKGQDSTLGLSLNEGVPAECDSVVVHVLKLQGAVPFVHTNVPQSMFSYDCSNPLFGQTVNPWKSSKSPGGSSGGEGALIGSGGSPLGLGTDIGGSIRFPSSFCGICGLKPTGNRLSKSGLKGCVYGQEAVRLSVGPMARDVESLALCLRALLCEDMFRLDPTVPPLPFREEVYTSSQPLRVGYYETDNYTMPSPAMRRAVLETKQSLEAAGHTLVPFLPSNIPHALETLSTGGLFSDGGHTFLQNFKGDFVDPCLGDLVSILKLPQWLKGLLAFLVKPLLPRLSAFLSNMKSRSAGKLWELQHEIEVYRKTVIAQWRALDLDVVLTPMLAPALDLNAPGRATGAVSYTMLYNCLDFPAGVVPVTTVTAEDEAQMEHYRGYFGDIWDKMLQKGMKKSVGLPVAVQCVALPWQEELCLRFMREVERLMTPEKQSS
Procedure: (1) Preparation of Enzyme Fraction
The FAAH gene was cloned by PCR. That is, a human brain library was used as a cDNA library, 5′-[…]-3′ [SEQ ID NO:1] and 5′-[…]-3′ [SEQ ID NO:2] were used as a primer set, and KOD DNA polymerase (Toyobo Co., Ltd.) was used as a DNA polymerase. One cycle of the reaction comprises 95° C. for 30 sec, 55° C. for 30 sec and 72° C. for 2 min, and 45 cycles of the reaction was carried out to obtain an amplified fragment. The amplified fragment was cleaved with restriction enzymes EcoRI and SalI, and then was inserted into a pMSRα vector which had been cleaved with the same restriction enzymes EcoRI and SalI to obtain a pMSRα-human FAAH. A cell line CHO-K1 and the above-obtained plasmid were subjected to a method known per se to prepare the cell line CHO-K1/human FAAH in which human FAAH was stably expressed. The CHO-K1/human FAAH was cultured in a CO2 incubator at 37° C., using a medium (Ham's F-12 medium supplemented with final concentration 10% of fetal bovine serum (FBS) and final concentration 800 μg/ml of G418), and then the cells were harvested. After washing with PBS, the cells were suspended in a buffer (10 mM Tris, 1 mM EDTA and 10 mM MgCl2, all at final concentrations) and disrupted with a Polytron homogenizer. After centrifugation at 900 g, the supernatant was recovered and further centrifuged at 10000 g. A pellet obtained therefrom was suspended in M-PER (Catalog No. 78501; PIERCE) to give an enzyme fraction.
Using a white walled 96-well plate (Coster Corp.), the test compound at various concentrations, 60 ng of the enzyme fraction and the substrate anandamide [ethanolamine 1-^3H] (final concentration 25 nM) were reacted in 50 μl of a reaction buffer (125 mM Tris-HCl (pH 9.0), 1 mM EDTA, 0.4 mM HEPES, 0.2% glycerol and 0.02% Triton X-100, all at final concentrations) at 37° C. for 30 minutes. The reaction mixture was transferred to a 96-well MultiScreen-HA filter plate (Millipore Corp.) and then was left to stand overnight at room temperature in order to allow the unreacted substrate to be adsorbed on the filter. The plate was washed with PBS using a MultiScreen Vacuum Manifold (Millipore Corp.) and dried. To each well, 50 μl of liquid scintillation cocktail was added and stirred, and then counting was performed with a TopCount (Perkin-Elmer Corp.). The count of a sample containing a solvent instead of the test compound was taken as 0%, and the count at zero time was taken as 100%, to calculate the inhibitory activity of the compound.

Structure (SMILES)	inhibition at 1 µM [%]
O=C(Nc1cccnn1)N1CCN(c2nc(-c3cccc(F)c3F)cs2)CC1 [Example 272, 4-[4-(2,3-Difluorophenyl)-1,3-thiazol-2-yl]-N-pyridazin-3-ylpiperazine-1-carboxamide]	102
CCc1sc(N2CCN(C(=O)Nc3ccc(NC(C)=O)nc3)CC2)nc1-c1ccccc1 [Example 226, N-[6-(Acetylamino)pyridin-3-yl]-4-(5-ethyl-4-phenyl-1,3-thiazol-2-yl)piperazine-1-carboxamide]	104
O=C(Nc1cnccn1)N1CCN(c2nc(-c3ccccc3)cs2)CC1 [Example 166, 4-(4-Phenyl-1,3-thiazol-2-yl)-N-pyrazin-2-ylpiperazine-1-carboxamide]	106
Cc1noc(NC(=O)N2CCN(c3nc(-c4cccc(Cl)c4Cl)cs3)CC2)c1C [Example 284, 4-[4-(2,3-Dichlorophenyl)-1,3-thiazol-2-yl]-N-(3,4-dimethylisoxazol-5-yl)piperazine-1-carboxamide]	128
O=C(Nc1noc2ccccc12)N1CCN(c2nc(-c3ccccc3)no2)CC1 [Example 22, N-1,2-Benzisoxazol-3-yl-4-(3-phenyl-1,2,4-oxadiazol-5-yl)piperazine-1-carboxamide]	94
O=C(Nc1cccnc1)N1CCN(c2nc(-c3cccc(F)c3F)cs2)CC1 [Example 262, 4-[4-(2,3-Difluorophenyl)-1,3-thiazol-2-yl]-N-pyridin-3-ylpiperazine-1-carboxamide]	106
Cc1noc(NC(=O)N2CCN(c3nc(-c4cccc(C(F)(F)F)c4)cs3)CC2)c1C [Example 278, N-(3,4-Dimethylisoxazol-5-yl)-4-{4-[3-(trifluoromethyl)phenyl]-1,3-thiazol-2-yl}piperazine-1-carboxamide]	104
O=C(Nc1noc2ccccc12)N1CCN(c2nc(-c3ccccn3)ns2)CC1 [Example 15, N-1,2-Benzisoxazol-3-yl-4-(3-pyridin-2-yl-1,2,4-thiadiazol-5-yl)piperazine-1-carboxamide]	102
CC(C)c1nsc(N2CCN(C(=O)Nc3noc4ccccc34)CC2)n1 [Example 9, N-1,2-Benzisoxazol-3-yl-4-(3-isopropyl-1,2,4-thiadiazol-5-yl)piperazine-1-carboxamide]	98
O=C(Nc1noc2ccccc12)N1CCN(c2nc(-c3ccccc3)ns2)CC1 [Example 1, N-1,2-Benzisoxazol-3-yl-4-(3-phenyl-1,2,4-thiadiazol-5-yl)piperazine-1-carboxamide]	100
O=C(Nc1cccnc1)N1CCN(c2nc(-c3ccccc3)ns2)CC1 [Example 85, 4-(3-Phenyl-1,2,4-thiadiazol-5-yl)-N-pyridin-3-ylpiperazine-1-carboxamide hydrochloride]	100
Cc1noc(NC(=O)N2CCC(c3nc(-c4ccccc4)cs3)CC2)c1C [Example 190, N-(3,4-Dimethylisoxazol-5-yl)-4-(4-phenyl-1,3-thiazol-2-yl)piperidine-1-carboxamide]	103
Cc1cccc(-c2csc(N3CCN(C(=O)Nc4onc(C)c4C)CC3)n2)c1 [Example 280, N-(3,4-Dimethylisoxazol-5-yl)-4-[4-(3-methylphenyl)-1,3-thiazol-2-yl]piperazine-1-carboxamide]	86
O=C(Nc1noc2ccccc12)N1CCN(c2nc(N3CCCCC3)ns2)CC1 [Example 17, N-1,2-Benzisoxazol-3-yl-4-(3-piperidin-1-yl-1,2,4-thiadiazol-5-yl)piperazine-1-carboxamide]	95
O=C(Nc1cccnn1)N1CCN(c2nc(-c3ccccc3)ns2)CC1 [Example 147, 4-(3-Phenyl-1,2,4-thiadiazol-5-yl)-N-pyridazin-3-ylpiperazine-1-carboxamide]	101
Cc1cccc(-c2csc(N3CCN(C(=O)Nc4cccnc4)CC3)n2)c1 [Example 275, 4-[4-(3-Methylphenyl)-1,3-thiazol-2-yl]-N-pyridin-3-ylpiperazine-1-carboxamide]	94
O=C(Nc1ccc2[nH]nnc2c1)N1CCN(c2nc(-c3ccccc3)ns2)CC1 [Example 71, N-1H-1,2,3-Benzotriazol-5-yl-4-(3-phenyl-1,2,4-thiadiazol-5-yl)piperazine-1-carboxamide]	108
O=C(Nc1cnccn1)N1CCN(c2nc(-c3cccc(F)c3)cs2)CC1 [Example 229, 4-[4-(3-Fluorophenyl)-1,3-thiazol-2-yl]-N-pyrazin-2-ylpiperazine-1-carboxamide]	105
COc1cccc(-c2csc(N3CCN(C(=O)Nc4onc(C)c4C)CC3)n2)c1 [Example 277, N-(3,4-Dimethylisoxazol-5-yl)-4-[4-(3-methoxyphenyl)-1,3-thiazol-2-yl]piperazine-1-carboxamide]	100
Cc1noc(NC(=O)N2CCN(c3nc(-c4cccc(Cl)c4)cs3)CC2)c1C [Example 276, 4-[4-(3-Chlorophenyl)-1,3-thiazol-2-yl]-N-(3,4-dimethylisoxazol-5-yl)piperazine-1-carboxamide]	104
O=C(Nc1cccnn1)N1CCN(c2nc(-c3cccc(F)c3)cs2)CC1 [Example 228, 4-[4-(3-Fluorophenyl)-1,3-thiazol-2-yl]-N-pyridazin-3-ylpiperazine-1-carboxamide]	106
O=C(Nc1noc2ccccc12)N1CCN(C(=O)OCc2ccccc2)CC1 [Example 95, Benzyl 4-[(1,2-benzisoxazol-3-ylamino)carbonyl]piperazine-1-carboxylate]	100
O=C(Nc1cccnc1)N1CCN(c2nc(-c3cccc(Cl)c3Cl)cs2)CC1 [Example 283, 4-[4-(2,3-Dichlorophenyl)-1,3-thiazol-2-yl]-N-pyridin-3-ylpiperazine-1-carboxamide]	102
O=C(Nc1cccnc1)N1CCN(c2nc(-c3ccccc3)cs2)CC1 [Example 94, 4-(4-Phenyl-1,3-thiazol-2-yl)-N-pyridin-3-ylpiperazine-1-carboxamide]	100
Cc1noc(NC(=O)N2CCN(c3nc(-c4ccc(F)cc4F)cs3)CC2)c1C [Example 260, 4-[4-(2,4-Difluorophenyl)-1,3-thiazol-2-yl]-N-(3,4-dimethylisoxazol-5-yl)piperazine-1-carboxamide]	102
Cc1noc(NC(=O)N2CCC(c3nc(-c4ccc(F)cc4)cs3)CC2)c1C [Example 236, N-(3,4-Dimethylisoxazol-5-yl)-4-[4-(4-fluorophenyl)-1,3-thiazol-2-yl]piperidine-1-carboxamide]	106
O=C(Nc1noc2ccccc12)N1CCN(c2nc(-c3ccccc3)co2)CC1 [Example 23, N-1,2-Benzisoxazol-3-yl-4-(4-phenyl-1,3-oxazol-2-yl)piperazine-1-carboxamide]	100
